Literature values, collected in US9029312B2, “Compositions for cleaning applicators for hair removal compositions” (priority 2012, dated 2015).

What was measured:
[1] = Bhargava & Leonard 1996

Oc1cc(Cl)ccc1Oc1ccc(Cl)cc1Cl [Triclosan, 5-Chloro-2-(2,4-dichlorophenoxy) phenol]
solubility in mineral oil: relatively high solubility in mineral oil | carcinogenic, mutagenic or teratogenic effects [1]: not found to have any carcinogenic, mutagenic or teratogenic effects | toxicity to humans and other mammals [1]: relatively non-toxic
